From patent publication US20130267474A1, “NOVEL PHYTOCHEMICALS FROM EXTRACTS OF MAPLE SYRUPS AND MAPLE TREES AND USES THEREOF” (UNIVERSITY OF RHODE ISLAND, priority 2010, published 2013)
Where two headings read alike, the source gives them in different places.

Assays:
[1] = DPPH radical scavenging (antioxidant) assay; assay type: biochemical; conditions: for IC50, DPPH radical scavenging, converted (ca.): conversion of the μM value
Protocol: The DPPH radical scavenging activity of ascorbic acid (vitamin C) and the synthetic commercial antioxidant, butylated hydroxytoluene (BHT) are also assayed as positive controls (see Table 10). […] Absorbance is determined after 30 min at 515 nm, and the scavenging capacity (SC) is calculated as SC %=[(A0−A1/A0)]×100, where A0 is the absorbance of the reagent blank and A1 is the absorbance of the test samples. The control contained all reagents except the compounds, and all tests are performed in triplicate.
Absorbance is determined after 30 min at 515 nm, and the scavenging capacity (SC) is calculated as SC %=[(A0−A1/A0)]×100 where A0 is the absorbance of the reagent blank, and A1 is the absorbance with test samples. The control contained all reagents except the compounds and all tests are performed in triplicate.

[2] = system: HT-29 (human colon adenocarcinoma); assay: MTS cytotoxicity / antiproliferative assay; assay type: cell-based; conditions: Homo sapiens
Protocol: (§1) Cell lines included three human colon cancer cells: HT-29 (human colon adenocarcinoma), HCT116 (human colon carcinoma) and Caco-2 (human epithelial colorectal adenocarcinoma). In addition, normal human colon cells are included: CCD-^18Co (human colon fibroblasts). All cell lines are obtained from the American Type Culture Collection (ATCC, Rockville, Md., USA) and maintained at the University of Rhode Island.
(§2) The assay is carried out to measure the IC50 values for samples. […] Test samples and a positive control, etoposide 4 mg/mL (Sigma), are solubilized in DMSO by sonication. […] Control wells are also included on all plates. […] Each point on the curve is […]. Data (see tables 6 to 9) are expressed as mean±SE for three replications on each cell line.

[3] = system: HCT-116 (human colon carcinoma); assay: MTS cytotoxicity / antiproliferative assay; assay type: cell-based; conditions: Homo sapiens
Protocol: as §1, §2

[4] = system: Caco-2 (human epithelial colorectal adenocarcinoma); assay: MTS cytotoxicity / antiproliferative assay; assay type: cell-based; conditions: Homo sapiens
Protocol: as §1, §2

[5] = Table 10, mean ± standard deviation, 30 min, 515 nm, read-out: IC50 (μM), DPPH radical scavenging
[6] = HT-29, 48 h, read-out: HT-29 48 h(IC50), Table 6 maple compounds, 48 h, unit inferred
[7] = HT-29, 72 h, Table 6 maple compounds, 72 h, unit inferred, read-out: HT-29 72 h(IC50)
[8] = HCT-116, 48 h, read-out: HCT-116 48 h(IC50), Table 6 maple compounds, 48 h, unit inferred
[9] = HCT-116, 72 h, Table 6 maple compounds, 72 h, unit inferred, read-out: HCT-116 72 h(IC50)
[10] = HT-29, 72 h, 72 h, pure isolated compounds, read-out: Antiproliferative activity HT-29 72 h (IC50)
[11] = HCT-116, 48 h, read-out: Antiproliferative activity HCT-116 48 h (IC50), 48 h, pure isolated compounds
[12] = HCT-116, 72 h, 72 h, pure isolated compounds, read-out: Antiproliferative activity HCT-116 72 h (IC50)
[13] = HCT-116, 72 h, 72 h, range given for the group, read-out: IC50 against HCT-116 cells at 72 h (activity ranking)
[14] = Caco-2, 48 h, read-out: Antiproliferative activity Caco-2 48 h (IC50), 48 h, pure isolated compounds
[15] = Caco-2, 48 h, read-out: Caco-2 48 h(IC50), Table 6 maple compounds, 48 h, unit inferred
[16] = Caco-2, 72 h, 72 h, pure isolated compounds, read-out: Antiproliferative activity Caco-2 72 h (IC50)
[17] = Caco-2, 72 h, Table 6 maple compounds, 72 h, unit inferred, read-out: Caco-2 72 h(IC50)
[18] = HT-29, 48 h, read-out: Antiproliferative activity HT-29 48 h (IC50), 48 h, pure isolated compounds

| IC50 [1, 5] | Compound | IC50 [2, 7] | IC50 [3, 8] | IC50 [3, 9] | IC50 [2, 10] | IC50 [3, 11] | IC50 [3, 12] | IC50 [3, 13] | other results |
| --- | --- | --- | --- | --- | --- | --- | --- | --- | --- |
| 68.9 ± 5.7 µM | 2,4,5-trihydroxyacetophenone [compound 13] |  |  |  |  |  |  |  |  |
| 40.2 ± 13.4 µM | O=C1O[C@H]([C@@H](O)CO)C(O)=C1O [Ascorbic acid, reference compound] |  |  |  |  |  |  |  | IC50, DPPH radical scavenging, converted (ca.) [1]: ca. 7.08 μg/mL; IC50 ([1]; listed as Vitamin C, read-out: IC50, DPPH radical scavenging (text)): 40 µM; IC50 ([1]; listed as vitamin C, read-out: IC50, DPPH radical scavenging (text)): 58 µM |
| 3000 ± 1120 µM | Cc1cc(C(C)(C)C)c(O)c(C(C)(C)C)c1 [BHT, butylated hydroxytoluene, reference compound] |  |  |  |  |  |  |  | IC50, DPPH radical scavenging, converted (ca.) [1]: ca. 660 μg/mL; IC50 ([1]; running text, listed as butylatedhydroxytoluene, read-out: IC50, DPPH radical scavenging (text)): 2650 µM; IC50 ([1]; running text, read-out: IC50, DPPH radical scavenging (text)): 3000 µM |
|  | COc1cc(/C=C/C(=O)O)ccc1O [Ferulic Acid] | 121 µM | 119 µM | 104 µM |  |  |  |  | IC50 [2, 6]: 128 µM |
|  | COc1cc([C@@H](O)[C@@H](CO)Oc2ccc(CCCO)cc2OC)ccc1O [compound 6, erythro-guaiacylglycerol-β-O-4′-dihydroconiferyl alcohol] | 110 µM | 107 µM | 98.6 µM | 110 ± 2 µM | 107 ± 2.3 µM | 98.6 ± 3.2 µM | 94 to 110 µM | IC50 [4, 14]: 93.9 ± 2 µM; IC50 [4, 15]: 93.9 µM; IC50 [4, 16]: 88.5 ± 1 µM; IC50 [4, 17]: 88.5 µM |
| 578.5 ± 1.3 µM | COc1cc(/C=C/c2ccc(O)c(OC)c2)ccc1O [compound 10, (E)-3,3′-dimethoxy-4,4′-dihydroxystilbene] |  |  |  |  |  |  |  | IC50 [4, 17]: 93.1 µM |
| 1810 ± 266 µM | COc1cc(C=O)ccc1O [compound 15, vanillin] | 114 µM | 120 µM | 110 µM | 114 ± 1.5 µM | 120.3 ± 1 µM | 110 ± 1.7 µM | 94 to 110 µM |  |
|  | COc1cc(C=O)cc(OC)c1O [compound 16, syringaldehyde] |  |  |  |  |  |  |  | IC50 ([2]; HT-29, 48 h, read-out: Antiproliferative activity HT-29 48 h (IC50)): 90.7 ± 3 µM; IC50 ([2]; HT-29, 48 h, read-out: HT-29 48 h(IC50)): 90.7 µM; IC50 ([2]; HT-29, 72 h, read-out: Antiproliferative activity HT-29 72 h (IC50)): 68.6 ± 1.4 µM; IC50 ([2]; HT-29, 72 h, read-out: HT-29 72 h(IC50)): 68.6 µM; IC50 ([3]; HCT-116, 48 h, read-out: Antiproliferative activity HCT-116 48 h (IC50)): 66.8 ± 1.3 µM; IC50 ([3]; HCT-116, 48 h, read-out: HCT-116 48 h(IC50)): 66.8 µM; IC50 ([3]; HCT-116, 72 h, read-out: Antiproliferative activity HCT-116 72 h (IC50)): 56.3 ± 1.8 µM; IC50 ([3]; HCT-116, 72 h, read-out: HCT-116 72 h(IC50)): 56.3 µM; IC50 ([3]; HCT-116, 72 h, read-out: IC50 against HCT-116 cells at 72 h (activity ranking)): 42 to 67 µM; IC50 ([4]; Caco-2, 48 h, read-out: Antiproliferative activity Caco-2 48 h (IC50)): 59.4 ± 2.7 µM; IC50 ([4]; Caco-2, 48 h, read-out: Caco-2 48 h(IC50)): 59.4 µM; IC50 ([4]; Caco-2, 72 h, read-out: Antiproliferative activity Caco-2 72 h (IC50)): 35.9 ± 2.4 µM; IC50 ([4]; Caco-2, 72 h, read-out: Caco-2 72 h(IC50)): 35.9 µM |
|  | O=C(O)c1cc(O)c(O)c(O)c1 [compound 17, gallic acid] |  | 64.9 µM | 42.1 µM |  | 64.9 ± 2.3 µM | 42.1 ± 1.9 µM | 42 to 67 µM | IC50 [4, 16]: 89.3 ± 1.7 µM; IC50 [4, 17]: 89.3 µM |
|  | COc1cc(C(=O)O)cc(OC)c1O [compound 19, syringic acid] | 116 µM | 119 µM | 108 µM | 116 ± 1.8 µM | 119 ± 1.3 µM | 108 ± 0.9 µM | 94 to 110 µM | IC50 [2, 18]: 126 ± 1.8 µM; IC50 [2, 6]: 126 µM |
| 322 ± 31.9 µM | COc1cc(/C=C/CO)cc(OC)c1O [compound 20, syringenin] | 113 µM | 124 µM | 108 µM | 113 ± 1.5 µM | 123.5 ± 1.1 µM | 108 ± 1.5 µM | 94 to 110 µM | IC50 [2, 18]: 126 ± 3 µM; IC50 [2, 6]: 126 µM |
|  | COc1cc(/C=C/CO)ccc1O [compound 21, (E)-coniferol] | 113 µM | 111 µM | 84.6 µM | 113 ± 1.9 µM | 111 ± 1.5 µM | 84.6 ± 1.9 µM |  | IC50 ([3]; HCT-116, 72 h, 72 h, range given for the group, unit inferred, read-out: IC50 against HCT-116 cells at 72 h (moderately active group)): 75 to 85 µM; IC50 [4, 14]: 112 ± 2 µM; IC50 [4, 15]: 116 µM; IC50 [4, 16]: 96.4 ± 2.9 µM; IC50 [4, 17]: 96.4 µM |
| 164 ± 15.2 µM | COc1cc(C(O)C(CO)Oc2ccc(C(O)C(O)CO)cc2OC)ccc1O (stereo not drawn) [compound 27] |  |  |  |  |  |  |  |  |

| Compound | IC50 [1, 5] | IC50 [2, 7] | IC50 [3, 8] | IC50 [3, 9] | IC50 [2, 10] | IC50 [3, 11] | IC50 [3, 12] | IC50 [3, 13] | other results |
| --- | --- | --- | --- | --- | --- | --- | --- | --- | --- |
| 5-(3″,4″-dimethoxyphenyl)-3-hydroxy-3-(4′-hydroxy-3′-methoxybenzyl)-4-hydroxymethyl-dihydrofuran-2-one [compound 24] | 254 ± 32.5 µM |  |  |  |  |  |  |  |  |
| COc1cc(C(O)C(CO)Oc2c(OC)cc(C(O)C(O)CO)cc2OC)ccc1O (stereo not drawn) [compound 25, (erythro,erythro)-1-[4-[2-hydroxy-2-(4-hydroxy-3-methoxyphenyl)-1-(hydroxymethyl)ethoxy]-3,5-dimethoxyphenyl]-1,2,3-propanetriol] | 97.8 ± 24 µM |  |  |  |  |  |  |  |  |
